This note sets out measurements from doi:10.1101/2023.01.08.523168v1 (biorxiv, 2023).

Residues, ends and D or L forms follow the SMILES beside them. *: point of attachment. Oxazole(5-CO) = O=C(c1cnco1)*

In the assay the target is T1, NanoLuc-ENL (ENL YEATS-NanoLuc luciferase fusion protein) (Homo sapiens, UniProt Q03111).
T1 sequence (Q03111 1-148): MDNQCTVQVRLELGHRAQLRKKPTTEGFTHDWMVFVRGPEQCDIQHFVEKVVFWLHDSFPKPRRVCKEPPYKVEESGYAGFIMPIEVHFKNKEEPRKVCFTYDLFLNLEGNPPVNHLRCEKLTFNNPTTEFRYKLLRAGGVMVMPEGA
The experiment in a line: NanoBRET tracer displacement in HEK293T cells. Type of assay: cell-based. To be noted: HEK-293T, read-out: % inhibition at 40 μM.

For the compound `CC(=O)N[C@H](C(=O)N[C@@H](Cc1ccc(O)cc1)C(=O)N[C@@H](CS)C(=O)N[C@@H](Cc1ccc(O)cc1)C(=O)N[C@@H](CCCCNC(=O)c1cnco1)C(N)=O)C(C)C` [tENL-S1o] (Ac-VYCYK(Oxazole(5-CO))-NH2), the inhibition at 40 µM was about 50%.
